US7449545B2, “Antimicrobial bolisin peptides” (IPF Pharmaceuticals GmbH, priority 2001, dated 2008)
Ends that are not written are not given here.

Legend:
Format in all cases: cell-based
[1] = test system: Candida albicans ATCC 10231; conditions: for minimum inhibition concentration: ATCC 10231, 2 h
[2] = test system: Enterococcus faecalis ATCC 51299 (vancomycin-resistant); conditions: ATCC 51299, 2 h
Method in brief: (§1)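 Synthetic peptides were serially diluted in Mueller Hinton Broth following NCCLS M7-A3, inoculated with bacteria and incubated 18±2 h; the lowest concentration with no growth was taken as the MIC, in μg/ml.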

[3] = test system: Escherichia coli ATCC 25922; conditions: ATCC 25922, 2 h
Method in brief: as §1

[4] = test system: Klebsiella pneumoniae ATCC 10031; conditions: ATCC 10031, 2 h
Method in brief: as §1

[5] = test system: Staphylococcus aureus ATCC 25923; conditions: ATCC 25923, 2 h
Method in brief: as §1

[6] = test system: Streptococcus pneumoniae DSM 11865 (penicillin-resistant); conditions: DSM 11865, 2 h
Method in brief: as §1

[7] = test system: Pseudomonas aeruginosa ATCC 9027; conditions: Mueller Hinton Broth; complete growth inhibition not achieved
[8] = test system: Staphylococcus aureus ATCC 25923; conditions: Tryptic Soy Broth (3 g/l) with 150 mM sodium chloride; complete growth inhibition not achieved
Procedure: (§2) The antibiotic activity of bolisin analogues was examined by determining the minimum inhibition concentration. The minimum inhibition concentration of an analogue designates the lowest peptide concentration which is required to inhibit the growth of microorganisms completely after an incubation time of 18±2 h. This method allows to obtain a quantitative result about the antimicrobial potency of the peptides. These examinations were performed by analogy with the recommendations (M7-A3) edited by the NCCLS (National Committee for Clinical Laboratory Standards) by applying a dilution test in a liquid medium using chemically synthesized peptides (peptide sequences according to claims 1 to 3). Mueller Hinton Broth was used as the test medium according to the NCCLS recommendations unless indicated otherwise. […] The minimum inhibition concentrations are stated in [μg/ml].
(§3) A complete growth inhibition could not be achieved in this case. For determining the minimum inhibition concentration, the following microorganisms were used: • 1. Staphylococcus aureus ATCC 25923 • 2. Enterococcus faecalis ATCC 51299 (vancomycin-resistant) • 3. Streptococcus pneumoniae DSM 11865 (penicillin-resistant) • 4. Escherichia coli ATCC 25922 • 5. Pseudomonas aeruginosa ATCC 9027 • 6. Klebsiella pneumoniae ATCC 10031 • 7. Candida albicans ATCC 10231
(§4) Also for these examinations, the minimum inhibition concentration of the peptides against Gram-positive and Gram-negative microorganisms (microorganisms 1-6) was determined. Tryptic Soy Broth (3 g/l) with an addition of salt in physiological concentration (150 mM sodium chloride) was used as the test medium.
(§5) A complete growth inhibition could not be achieved in this case.

[9] = test system: Streptococcus pneumoniae DSM 11865 (penicillin-resistant); conditions: Tryptic Soy Broth (3 g/l) with 150 mM sodium chloride; complete growth inhibition not achieved
Procedure: as §2, §3, §4, §5

[10] = test system: Klebsiella pneumoniae ATCC 10031; conditions: Tryptic Soy Broth (3 g/l) with 150 mM sodium chloride; complete growth inhibition not achieved
Procedure: as §2, §3, §4, §5

[11] = test system: Enterococcus faecalis ATCC 51299 (vancomycin-resistant); conditions: Tryptic Soy Broth (3 g/l) with 150 mM sodium chloride; complete growth inhibition not achieved
Procedure: as §2, §3, §4, §5

Substance	minimum inhibition concentration [1]	minimum inhibition concentration [2]	minimum inhibition concentration [3]	minimum inhibition concentration [4]	minimum inhibition concentration [5]	minimum inhibition concentration [6]	peptide concentration giving 75% inhibition of growth (value in parentheses) [7]	peptide concentration giving 75% inhibition of growth (value in parentheses) [8]	peptide concentration giving 75% inhibition of growth (value in parentheses) [9]	peptide concentration giving 75% inhibition of growth (value in parentheses) ([1]; Mueller Hinton Broth, complete growth inhibition not achieved)	peptide concentration giving 75% inhibition of growth (value in parentheses) [10]	peptide concentration giving 75% inhibition of growth (value in parentheses) [11]
KYIVYKIRSAWKRRKALK-OH [BOL-86, KYIVYKIRSAWKRRKALK]	18.75 µg/mL	200 µg/mL	150 µg/mL	50 µg/mL	75 µg/mL	150 µg/mL	(18.75) μg/ml	(300) μg/ml	(300) μg/ml	–	–	–
YIVWKIRSARKRWKALK-OH [BOL-81, YIVWKIRSARKRWKALK]	75 µg/mL	150 µg/mL	300 µg/mL	25 µg/mL	300 µg/mL	75 µg/mL	(18.75) μg/ml	(300) μg/ml	(75) μg/ml	–	–	–
YIVYKIRRARKRRKALK-OH [BOL-52, YIVYKIRRARKRRKALK]	–	200 µg/mL	>300 µg/mL	75 µg/mL	300 µg/mL	200 µg/mL	(37.5) μg/ml	–	–	(37.5) μg/ml	(300) μg/ml	–
YIVYKIRRAWKRRKALK-OH [BOL-54, YIVYKIRRAWKRRKALK]	18.75 µg/mL	100 µg/mL	100 µg/mL	18.75 µg/mL	200 µg/mL	75 µg/mL	(25) μg/ml	–	–	–	(200) μg/ml	–
YIVYKIRSARKRWK-OH [BOL-71, YIVYKIRSARKRWK]	300 µg/mL	200 µg/mL	300 µg/mL	300 µg/mL	200 µg/mL	300 µg/mL	(200) μg/ml	–	–	–	–	(300) μg/ml
YIVYKIRSAWKRRKALK-OH [BOL-44, YIVYKIRSAWKRRKALK]	37.5 µg/mL	>300 µg/mL	200 µg/mL	75 µg/mL	150 µg/mL	200 µg/mL	(75) μg/ml	–	–	–	–	(300) μg/ml
